Assay results reported in ChEMBL document CHEMBL3885861, “Open TG-GATES”.

Species on record: Rattus norvegicus
Experiment: Open TG-GATES - Regimen: Single
Format: toxicity, organism-based, Sprague-Dawley
Design: regimen Single, gender Male, age 6 weeks
Details: in vivo, po, 100 mg/kg, route gavage, dose level Low; for APTT / Bas / Eos / Fbg / Hb / Ht / Lym / MCH / MCHC / MCV / Mono / Neu / PT / Plat / RBC / Ret / WBC: tissue Blood; for KIDNEY_L / KIDNEY_R / KIDNEY_TOTAL: tissue Kidney; for LIVER: tissue Liver; for A/G / ALP / ALT / AST / BUN / CRE / Ca / Cl / DBIL / GLC / IP / K / LDH / Na / PL / RALB / TBIL / TC / TG / TP / gamma-GTP: tissue Plasma

CCc1cc(C(N)=S)ccn1 [ETHIONAMIDE]
TERMINAL_BW (3 h): 224.2 g
APTT (3 h): 16.6 s
Bas (3 h): 0%
Eos (3 h): 1%
Fbg (3 h): 211.2 mg/dL
Hb (3 h): 13.8 g/dL
Ht (3 h): 40.6%
Lym (3 h): 73.6%
MCH (3 h): 21.8 pg
MCHC (3 h): 34%
MCV (3 h): 64 fL
Mono (3 h): 8.4%
Neu (3 h): 17.4%
PT (3 h): 12.4 s
Plat (3 h): 119.3 x10_4/uL
RBC (3 h): 635.8 x10_4/ul
Ret (3 h): 7.1%
WBC (3 h): 90.5 x10_2/uL
KIDNEY_L (3 h): 1 g
KIDNEY_R (3 h): 1 g
KIDNEY_TOTAL (3 h): 1.9 g
LIVER (3 h): 10.7 g
A/G (3 h): 1.9
ALP (3 h): 802.2 IU/L
ALT (3 h): 36 IU/L
AST (3 h): 68.6 IU/L
BUN (3 h): 15 mg/dL
CRE (3 h): 0.7 mg/dL
Ca (3 h): 11 mg/dL
Cl (3 h): 103 meq/L
DBIL (3 h): 0.012 mg/dL
GLC (3 h): 181.6 mg/dL
IP (3 h): 9.2 mg/dL
K (3 h): 4.4 meq/L
LDH (3 h): 109 IU/L
Na (3 h): 140.6 meq/L
PL (3 h): 128.4 mg/dL
RALB (3 h): 3.6 g/dL
TBIL (3 h): 0.4 mg/dL
TC (3 h): 73 mg/dL
TG (3 h): 58 mg/dL
TP (3 h): 5.5 g/dL
gamma-GTP (3 h): 1.6 IU/L
TERMINAL_BW (6 h): 229.4 g
APTT (6 h): 17.1 s
Bas (6 h): 0%
Eos (6 h): 0.8%
Fbg (6 h): 208.8 mg/dL
Hb (6 h): 14.2 g/dL
Ht (6 h): 42.1%
Lym (6 h): 77.6%
MCH (6 h): 22.1 pg
MCHC (6 h): 33.7%
MCV (6 h): 65.7 fL
Mono (6 h): 8%
Neu (6 h): 14.2%
PT (6 h): 13.4 s
Plat (6 h): 114.8 x10_4/uL
RBC (6 h): 640.6 x10_4/ul
Ret (6 h): 7.5%
WBC (6 h): 84 x10_2/uL
KIDNEY_L (6 h): 1 g
KIDNEY_R (6 h): 1 g
KIDNEY_TOTAL (6 h): 2 g
LIVER (6 h): 10.8 g
A/G (6 h): 1.8
ALP (6 h): 908.4 IU/L
ALT (6 h): 31.6 IU/L
AST (6 h): 77.4 IU/L
BUN (6 h): 15.6 mg/dL
CRE (6 h): 0.5 mg/dL
Ca (6 h): 11 mg/dL
Cl (6 h): 105.4 meq/L
DBIL (6 h): 0.004 mg/dL
GLC (6 h): 187.4 mg/dL
IP (6 h): 9.8 mg/dL
K (6 h): 4.5 meq/L
LDH (6 h): 123.4 IU/L
Na (6 h): 140.4 meq/L
PL (6 h): 126 mg/dL
RALB (6 h): 3.5 g/dL
TBIL (6 h): 0.4 mg/dL
TC (6 h): 69.6 mg/dL
TG (6 h): 54.4 mg/dL
TP (6 h): 5.5 g/dL
gamma-GTP (6 h): 1 IU/L
TERMINAL_BW (9 h): 222.6 g
APTT (9 h): 18.1 s
Bas (9 h): 0%
Eos (9 h): 1.4%
Fbg (9 h): 210.2 mg/dL
Hb (9 h): 14.2 g/dL
Ht (9 h): 42.2%
Lym (9 h): 70%
MCH (9 h): 21.7 pg
MCHC (9 h): 33.7%
MCV (9 h): 64.4 fL
Mono (9 h): 8.6%
Neu (9 h): 20%
PT (9 h): 14.1 s
Plat (9 h): 116.8 x10_4/uL
RBC (9 h): 655.2 x10_4/ul
Ret (9 h): 8.3%
WBC (9 h): 79.2 x10_2/uL
KIDNEY_L (9 h): 1 g
KIDNEY_R (9 h): 1 g
KIDNEY_TOTAL (9 h): 2 g
LIVER (9 h): 9.8 g
A/G (9 h): 2
ALP (9 h): 756.6 IU/L
ALT (9 h): 33.8 IU/L
AST (9 h): 73.4 IU/L
BUN (9 h): 15 mg/dL
CRE (9 h): 0.6 mg/dL
Ca (9 h): 10.7 mg/dL
Cl (9 h): 105.2 meq/L
DBIL (9 h): 0.018 mg/dL
GLC (9 h): 205.4 mg/dL
IP (9 h): 10.7 mg/dL
K (9 h): 4.5 meq/L
LDH (9 h): 95.6 IU/L
Na (9 h): 142 meq/L
PL (9 h): 100.4 mg/dL
RALB (9 h): 3.5 g/dL
TBIL (9 h): 0.4 mg/dL
TC (9 h): 53.4 mg/dL
TG (9 h): 28.4 mg/dL
TP (9 h): 5.3 g/dL
gamma-GTP (9 h): 1.4 IU/L
TERMINAL_BW (24 h): 231 g
APTT (24 h): 16.3 s
Bas (24 h): 0%
Eos (24 h): 1.2%
Fbg (24 h): 214.8 mg/dL
Hb (24 h): 14.3 g/dL
Ht (24 h): 42.3%
Lym (24 h): 62.4%
MCH (24 h): 21.6 pg
MCHC (24 h): 33.8%
MCV (24 h): 63.8 fL
Mono (24 h): 12.8%
Neu (24 h): 23.8%
PT (24 h): 12.2 s
Plat (24 h): 117.2 x10_4/uL
RBC (24 h): 663 x10_4/ul
Ret (24 h): 8%
WBC (24 h): 110 x10_2/uL
KIDNEY_L (24 h): 1.1 g
KIDNEY_R (24 h): 1.1 g
KIDNEY_TOTAL (24 h): 2.1 g
LIVER (24 h): 11.7 g
A/G (24 h): 1.9
ALP (24 h): 884.8 IU/L
ALT (24 h): 38.6 IU/L
AST (24 h): 80.4 IU/L
BUN (24 h): 16.4 mg/dL
CRE (24 h): 0.6 mg/dL
Ca (24 h): 10.9 mg/dL
Cl (24 h): 104.6 meq/L
DBIL (24 h): 0.026 mg/dL
GLC (24 h): 193.2 mg/dL
IP (24 h): 7.8 mg/dL
K (24 h): 4.6 meq/L
LDH (24 h): 90.4 IU/L
Na (24 h): 141.4 meq/L
PL (24 h): 136 mg/dL
RALB (24 h): 3.6 g/dL
TBIL (24 h): 0.3 mg/dL
TC (24 h): 67.6 mg/dL
TG (24 h): 103.8 mg/dL
TP (24 h): 5.5 g/dL
gamma-GTP (24 h): 1.8 IU/L
